Numbering of substitutions follows the chain as printed.
How the values were obtained:
Assay type in all cases: cell-based
GALR2 H102^3.29A mutant = target: T1, GALR2 H102^3.29A mutant (Homo sapiens, UniProt O43603, H102A); assay: NanoBiT-based Gq activation assay, H102^3.29A; settings: HEK293-A; HEK293A; expression ~WT (1:10); normalized to WT (1:1); mean ± SEM, n = 3; ** p < 0.01 vs expression-matched WT
T1 construct: expressed in transfected cells; host or cells: HEK293A
T1 sequence (O43603 1-387 H102A): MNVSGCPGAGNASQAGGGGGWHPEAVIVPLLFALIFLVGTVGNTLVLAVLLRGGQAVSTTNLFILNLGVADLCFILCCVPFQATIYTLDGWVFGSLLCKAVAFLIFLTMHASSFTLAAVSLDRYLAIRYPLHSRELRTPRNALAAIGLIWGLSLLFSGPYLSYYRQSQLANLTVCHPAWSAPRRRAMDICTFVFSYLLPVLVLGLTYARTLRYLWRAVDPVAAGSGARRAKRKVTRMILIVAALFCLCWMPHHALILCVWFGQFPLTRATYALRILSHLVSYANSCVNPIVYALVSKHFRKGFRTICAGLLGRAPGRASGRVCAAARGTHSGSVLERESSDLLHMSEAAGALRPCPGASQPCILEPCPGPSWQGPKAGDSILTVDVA
Description: (§1) After an incubation for 1 day, the transfected cells were harvested, pelleted with centrifugation, and suspended in 2 mL of Hank’s balanced saline solution containing 0.01% bovine serum albumin (BSA fatty acid–free grade, SERVA) and 5 mM HEPES (pH 7.4) (assay buffer). The cell suspension was dispensed in a white 96-well plate at a volume of 80 μl per well and mixed with 20 μl of 50 μM coelenterazine (custom-synthesized by Amadis Chemical) diluted in the assay buffer. After 2-h incubation at room temperature, the plate was measured for baseline luminescence (SpectraMax L, Molecular Devices). […] Kinetics data points from 5 min to 10 min were averaged and normalized to the initial count and used as a G-protein activation index. The G-protein activation signals were fitted to a 4-parameter sigmoidal concentration-response curve (GraphPad Prism8), and pEC50 values (negative logarithmic values of EC50 values) and Span values (“Top”–“Bottom”) were obtained. For individual experiments, we calculated Emax by normalizing Span to the WT GALR2 and ΔpEC50 by subtracting pEC50 of the WT GALR2 performed in parallel. We also calculated Emax/EC50 of GALR2 mutants relative to that of GALR2 WT, a dimensionless parameter known as relative intrinsic activity (RAi) and used its log-transformed value (Log RAi) to denote receptor activity.

human GALR2 WT = target: T2, human GALR2 WT (Homo sapiens, UniProt O43603); assay: NanoBiT-based Gq activation assay (Gq-PLCβ association), WT GALR2; settings: HEK293-A, HEK293A, normalized to WT (1:1), mean ± SEM, n = 3
T2 construct: expressed in transfected cells; host or cells: HEK293A
T2 sequence (O43603 1-387): T1 sequence (O43603 1-387 H102A) with A102H
Description: as §1

[1] = target: T3, GALR2 R274^7.35×34A mutant (Homo sapiens, UniProt O43603, R274A); assay: NanoBiT-based Gq activation assay, R274^7.35×34A; settings: HEK293-A
T3 construct: expressed in transfected cells; host or cells: HEK293A
T3 sequence (O43603 1-387 R274A): T1 sequence (O43603 1-387 H102A) with A102H, R274A
Description: as §1

GALR2 H176^ECL2A mutant = target: T4, GALR2 H176^ECL2A mutant (Homo sapiens, UniProt O43603, H176A); assay: NanoBiT-based Gq activation assay, H176^ECL2A; settings: HEK293-A; HEK293A; expression ~WT (1:1); normalized to WT (1:1); mean ± SEM, n = 3; ns p > 0.05 vs expression-matched WT
T4 construct: expressed in transfected cells; host or cells: HEK293A
T4 sequence (O43603 1-387 H176A): T1 sequence (O43603 1-387 H102A) with A102H, H176A
Description: as §1

[2] = target: T5, GALR2 R184^5.35×36V mutant (Homo sapiens, UniProt O43603, R184V); assay: NanoBiT-based Gq activation assay, R184^5.35×36V; settings: HEK293-A; HEK293A; expression ~WT (1:5); normalized to WT (1:1); mean ± SEM, n = 3; ns p > 0.05 vs expression-matched WT
T5 construct: expressed in transfected cells; host or cells: HEK293A
T5 sequence (O43603 1-387 R184V): T1 sequence (O43603 1-387 H102A) with A102H, R184V
Description: as §1

SMILES: CC(C)C[C@H](NC(=O)CNC(=O)[C@H](CC(N)=O)NC(=O)[C@H](CCCCN)NC(=O)[C@H](CC(=O)O)NC(=O)[C@H](CO)NC(=O)[C@H](Cc1ccccc1)NC(=O)[C@H](CO)NC(=O)[C@H](CCCNC(=N)N)NC(=O)[C@H](Cc1c[nH]cn1)NC(=O)[C@H](CC(N)=O)NC(=O)CNC(=O)[C@@H](NC(=O)[C@H](C)NC(=O)[C@H](Cc1c[nH]cn1)NC(=O)[C@@H]1CCCN1C(=O)CNC(=O)[C@H](CC(C)C)NC(=O)[C@H](CC(C)C)NC(=O)[C@H](Cc1ccc(O)cc1)NC(=O)CNC(=O)[C@H](C)NC(=O)[C@H](CO)NC(=O)[C@H](CC(N)=O)NC(=O)[C@H](CC(C)C)NC(=O)[C@@H](NC(=O)[C@H](Cc1c[nH]c2ccccc12)NC(=O)CN)[C@@H](C)O)C(C)C)C(=O)N[C@H](C(=O)N[C@@H](CO)C(=O)O)[C@@H](C)O [galanin]
- Emax (GALR2 H102^3.29A mutant): 17.4 ± 2.4%
- Emax (human GALR2 WT; WT (1:5) plasmid): 70.1 ± 8.7%
- Emax (human GALR2 WT; WT (1:10) plasmid): 48.3 ± 4.7%
- Emax (human GALR2 WT; WT (1:25) plasmid): 27.4 ± 5.1%
- Emax [1]: 74.7 ± 5.9%
- Emax (GALR2 H176^ECL2A mutant): 116 ± 3.4%
- Emax [2]: 60 ± 6%

Reference: paper PMC9371267 (PLoS Biology, 2022)
